The source of these data is patent US5112863A, “Antipsychotic drug” (Nippon Oil & Fats Co., Ltd., priority 1989, dated 1992).

Molecules are shown by their SMILES.

One data set has as its system GABA system. The conditions noted are these: via a GABA system; Japanese Patent Publications; Biochemical Pharmacol., 32, 2751-2755, 1983; cited from earlier work.
The test system of another data set is Wistar rats. Nature of the data set: Antipsychotic action test: phencyclidine-induced locomotor activity and stereotypy (method of Sturgen et al.). Type of data set: in vivo. As to conditions: for Effect on locomotor activity and stereotypy score compared with NMD-Ser and NMD-Ala: phencyclidine-dosed rats, dose not stated; for Locomotor activity score / Stereotypy score: 10 min before phencyclidine 10 mg/kg i.p., 30 minutes, grades 0-5; for Dose dependence of locomotor activity and stereotypy score: 30 minutes after pretreatment and dosage of phencyclidine; for Control of locomotor activity and stereotypy score: group dosed 100 mg/kg; for Statistical significance of lowering of locomotor activity and stereotypy score: group dosed more than 50 mg/kg, P<0.01. As for the experimental part:
(§1) Method: the action of antipsychotic was estimated by a method of Sturgen et al. (Eur. J. Pharmacol 76, 37-53, 1981). Namely, medicines suspended in 0.1% Tween 80 were dosed in the abdomen of Wistar rats (Weight: 200-250 g, 6 rats/group). After ten minutes, phencyclidine dissolved in physiological saline (10 mg/kg) was dosed intraperitoneally. After ten minutes, locomotor activity and stereotypy score were estimated at intervals of 20 minutes by 6 grades.
1. Sometimes, movement within localized area of cage.
2. Movement over a small area of cage, intermittent activity emitted at a low-moderate rate.
3. Movement over a small area of cage, activity emitted continuously and at a moderate-rapid rate.
4. Movement over a large area of cage, activety is intermittent and emitted at a low-moderate rate.
5. Movement over a large area of cage, activety is emitted continuously and at a moderate-rapid rate.
1. Locomotor activity, sniffing and grooming more frequent than observed for control.
2. Higher frequency of sniffing, rearing or turning than in 1.
3. Moderate rate and intermittent sniffing, rearing, turning or backpedaling.
4. Rapid rate and continuous turning, backpedaling, sniffing.
5. Dyokinetic extension and flexion of limbs, head and neck.

A further data set has as its system glycine binding site. Nature of the data set: Intracranial administration with 7-chlorokynurenic acid, phencyclidine-induced locomotor activity and stereotypy. The class given is in vivo, rats. As to conditions: 200 mg/kg with 7-chlorokynurenic acid (allosteric antagonist of glycine binding site) dosed in the brain. As for the experimental part:
as §1
Rats were anesthetized with pentobarbital (40 mg/kg, intruperitoneally) and mounted on a stereotaxic frame. For the intracranical administration of 7-chlorokynurenicocid, the guide cannulae were fixed to the skull. Beginning 5-7 days after surgery, bilateral intracranial injections were performed in the non-anesthetized rats with cannulae attached by poly ethylene tubes to two 10 μl Hamilton syringes. The injection site was A.P. -0.8 (anterior to bregma), V. +2.0, L.±1.5 according to the atlas of Paxinos and Watson (1982). The medicine 5 μl was injected in four minutes a minute after inserting the needle. After the injection the injection needle was kept in the brain for five minutes and removed. After ten minutes from the beginning of the injection, phencyclidine was dosed intraperitoneally.

The conditions of data set [1]: background statement; cited from earlier work.
The conditions of data set [2]: dosed in a living body; background statement; cited from earlier work.

`CCCCCNCC(N)=O` [2-n-pentyl amino aceto amide]: the “Anticonvulsant functions for convulsion induced with bicuculline” value in the data set on GABA system is on record as “anticonvulsant functions”.
For `CCCCC(=O)NCC(=O)O` [2-pentanoyl amino acetic acid], in the data set on GABA system, the “Anticonvulsant functions for convulsion induced with bicuculline” value is “anticonvulsant functions”.
As to `CCCCCCCC/C=C\CCCCCCCC(=O)N[C@H](CO)C(=O)O` [N-oleoyl-D-serine], in the data set on Wistar rats, the “Effect on locomotor activity and stereotypy score compared with NMD-Ser and NMD-Ala” value is given as “the same effect is observed”.
On the same count and under the same terms, as for `CCCCC(=O)N[C@H](CO)C(=O)O` [N-pentanoyl-D-serine], the entry is “the same effect is observed”.
With `CCCCCCCCCCCCCC(=O)N[C@H](C)C(=O)O` [NMD-Ala, N-myristoyl-D-alanine], the Locomotor activity score in the data set on Wistar rats (1 mg/kg i.p.) is 2.8 ± 0.2; with Wistar rats (10 mg/kg i.p.), 2.4 ± 0.4; in the data set with Wistar rats (50 mg/kg i.p., P < 0.01), 2.2 ± 0.4; with Wistar rats (100 mg/kg i.p., P < 0.01), 0.7 ± 0.3; in the data set with Wistar rats (200 mg/kg i.p., P < 0.01) it was 1.5 ± 0.3. Also, the Stereotypy score is listed as 3.0 ± 0.4 in the data set on Wistar rats (1 mg/kg i.p.); 2.4 ± 0.2 in the data set on Wistar rats (10 mg/kg i.p.); 2.0 ± 0.3 with Wistar rats (50 mg/kg i.p., P < 0.01); 0.8 ± 0.3 in the data set on Wistar rats (100 mg/kg i.p., P < 0.01); 1.3 ± 0.4 in the data set on Wistar rats (200 mg/kg i.p., P < 0.01). Further, in the data set with Wistar rats, the “Dose dependence of locomotor activity and stereotypy score” value is “the scores lessen with the decrease of the dose”. Also, the “Control of locomotor activity and stereotypy score” value in the data set with Wistar rats was “nearly controlled”. Also, in the data set with Wistar rats, the “Statistical significance of lowering of locomotor activity and stereotypy score” value is given as “statistical significant difference (P<0.01) is found”.
With `CCCCCCCCCCCCCC(=O)N[C@H](CO)C(=O)O` [NMD-Ser, N-myristoyl-D-serine], the Locomotor activity score was determined as 3.7 ± 0.2 in the data set with Wistar rats (1 mg/kg i.p.); 3.3 ± 0.2 in the data set on Wistar rats (10 mg/kg i.p.); 2.0 ± 0.3 with Wistar rats (50 mg/kg i.p., P < 0.01); 1.5 ± 0.5 with Wistar rats (100 mg/kg i.p., P < 0.01); 1.5 ± 0.3 in the data set on Wistar rats (200 mg/kg i.p., P < 0.01). In addition, the Stereotypy score with Wistar rats (1 mg/kg i.p.) amounted to 3.2 ± 0.3; in the data set with Wistar rats (10 mg/kg i.p.) it was 3.2 ± 0.3; in the data set with Wistar rats (50 mg/kg i.p., P < 0.01), 1.7 ± 0.2; with Wistar rats (100 mg/kg i.p., P < 0.01), 1.2 ± 0.3; in the data set on Wistar rats (200 mg/kg i.p., P < 0.01) it was 1.5 ± 0.2. In addition, the “Dose dependence of locomotor activity and stereotypy score” value in the data set on Wistar rats is reported as “the scores lessen with the decrease of the dose”. In the data set with Wistar rats, the “Control of locomotor activity and stereotypy score” value is listed as “nearly controlled”. Moreover, the “Statistical significance of lowering of locomotor activity and stereotypy score” value in the data set with Wistar rats was “statistical significant difference (P<0.01) is found”. The “Locomotor activity and stereotypy score observed at a dose of N-myristoyl-D-serine alone, when dosed with 7-chlorokynurenic acid” value in the data set with glycine binding site was “are not observed”.
Turning to `CN(C)CCCN1c2ccccc2Sc2ccc(Cl)cc21` [chlorpromazine], in data set [1], the Side effect entry was “unsatisfactorily side effect, for example, myogelosis, mouth dry, sleepiness and constipation”.
In the case of `NCC(=O)O` [glycine], in data set [2], the “Passage through blood brain barrier” value is “can not pass through blood brain barrier”.
